Measured values from ChEMBL document CHEMBL3286324, “Serendipitous oxidation product of BIBN4096BS: a potent CGRP receptor antagonist” (Bioorg Med Chem Lett, 2014).

Experiments:
[1] = molecular target: T1, Calcitonin gene-related peptide type 1 receptor (Homo sapiens, UniProt O60894+Q16602); test: Antagonist activity at CGRP receptor in human SK-N-MC cells assessed as inhibition of alpha-CGRP-induced c-AMP formation after 15 mins by radioimmunoassay; type: cell-based
[2] = molecular target: T1, Calcitonin gene-related peptide type 1 receptor; test: Displacement of [125I]-hCGRP from CGRP receptor in human SK-N-MC cell membranes after 2 hrs by scintillation counting analysis

T1 sequence (Q16602 whole entry, one chain of several): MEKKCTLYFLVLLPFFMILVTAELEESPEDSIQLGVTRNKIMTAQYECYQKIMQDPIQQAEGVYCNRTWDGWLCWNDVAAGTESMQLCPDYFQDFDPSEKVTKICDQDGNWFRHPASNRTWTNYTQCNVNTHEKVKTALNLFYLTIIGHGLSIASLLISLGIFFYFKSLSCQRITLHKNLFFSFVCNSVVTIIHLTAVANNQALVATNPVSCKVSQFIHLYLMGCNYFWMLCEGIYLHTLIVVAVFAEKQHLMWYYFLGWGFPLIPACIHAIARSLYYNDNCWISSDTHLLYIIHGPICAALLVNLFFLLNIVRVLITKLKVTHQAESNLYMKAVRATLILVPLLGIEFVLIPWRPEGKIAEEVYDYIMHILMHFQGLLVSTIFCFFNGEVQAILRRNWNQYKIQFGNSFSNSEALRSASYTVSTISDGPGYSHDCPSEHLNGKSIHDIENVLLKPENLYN

SMILES	EC50 [1] [nM]	IC50 [2] [nM]
NCCCC[C@H](NC(=O)[C@@H](Cc1cc(Br)c(O)c(Br)c1)NC(=O)N1CCC(n2c(=O)[nH]c3ccccc3c2=O)CC1)C(=O)N1CCN(c2ccncc2)CC1	0.15	–
NCCCC[C@H](NC(=O)[C@@H](Cc1cc2ccccc2s1)NC(=O)N1CCC(N2Cc3ccccc3NC2=O)CC1)C(=O)N1CCN(c2ccncc2)CC1	96	25
NCCCC[C@H](NC(=O)[C@@H](Cc1cc2ccccc2s1)NC(=O)N1CCC(n2c(=O)[nH]c3ccccc3c2=O)CC1)C(=O)N1CCN(c2ccncc2)CC1	100	2.7
